{"source": "patent US12448461B2", "about": "“ABCB5 ligands and substrates” (Children's Medical Center Corporation, priority 2018, dated 2025)", "key": {"[1]": {"test_system": "ABCB5", "assay": "Surface plasmon resonance (SPR) binding and antibody competition on PIP1, PIP2 and PIP3 surfaces"}, "[2]": {"biological_target": "T1, purified recombinant human ABCB5 (Homo sapiens, UniProt Q2M3G0)", "T1 sequence (Q2M3G0 1-812 isoform Q2M3G0-1)": "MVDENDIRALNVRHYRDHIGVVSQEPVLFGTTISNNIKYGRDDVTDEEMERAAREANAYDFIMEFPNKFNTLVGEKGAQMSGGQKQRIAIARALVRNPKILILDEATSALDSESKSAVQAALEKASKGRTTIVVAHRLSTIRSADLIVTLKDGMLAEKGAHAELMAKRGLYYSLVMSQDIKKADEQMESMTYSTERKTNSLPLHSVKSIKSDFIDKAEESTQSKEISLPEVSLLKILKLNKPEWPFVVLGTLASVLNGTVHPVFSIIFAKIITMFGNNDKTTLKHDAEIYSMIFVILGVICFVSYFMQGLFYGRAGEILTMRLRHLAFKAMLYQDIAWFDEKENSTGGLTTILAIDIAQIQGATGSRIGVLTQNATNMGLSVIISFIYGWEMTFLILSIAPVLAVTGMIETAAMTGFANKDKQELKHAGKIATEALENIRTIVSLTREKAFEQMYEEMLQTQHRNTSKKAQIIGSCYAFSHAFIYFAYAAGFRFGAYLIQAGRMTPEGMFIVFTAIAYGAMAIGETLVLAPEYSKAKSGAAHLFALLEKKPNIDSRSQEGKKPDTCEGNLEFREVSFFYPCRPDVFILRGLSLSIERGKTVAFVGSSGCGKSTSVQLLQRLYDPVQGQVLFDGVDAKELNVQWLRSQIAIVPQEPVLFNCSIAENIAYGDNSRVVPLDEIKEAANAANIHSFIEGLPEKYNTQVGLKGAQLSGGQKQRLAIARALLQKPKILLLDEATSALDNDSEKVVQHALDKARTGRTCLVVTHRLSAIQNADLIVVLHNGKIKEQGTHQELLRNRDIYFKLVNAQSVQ", "assay": "Competition ELISA: PIP1, PIP2 or PIP3 binding to ABCB5 with increasing doses of competitor", "method": "ELISA plates coated with PIP1, PIP2 or PIP3 were incubated with purified recombinant human ABCB5 (P-glycoprotein ABCB5 [Homo sapiens] GenBank: AAO73470.1) for binding, in the absence or presence of increasing doses of PtdIns-(1,2-dioctanoyl), a synthetic analog of natural phosphatidylinositol (PtdIns) containing C8:0 fatty acids at the sn-1 and sn-2 positions (CAS Registry Number 899827-36-2)."}, "[3]": {"biological_target": "T2, ABCB5 (Homo sapiens, UniProt Q2M3G0)", "T2 construct": "Immunoprecipitation from human ABCB5-expressing melanoma cells; endogenous in cells", "T2 sequence (Q2M3G0 1-1257)": "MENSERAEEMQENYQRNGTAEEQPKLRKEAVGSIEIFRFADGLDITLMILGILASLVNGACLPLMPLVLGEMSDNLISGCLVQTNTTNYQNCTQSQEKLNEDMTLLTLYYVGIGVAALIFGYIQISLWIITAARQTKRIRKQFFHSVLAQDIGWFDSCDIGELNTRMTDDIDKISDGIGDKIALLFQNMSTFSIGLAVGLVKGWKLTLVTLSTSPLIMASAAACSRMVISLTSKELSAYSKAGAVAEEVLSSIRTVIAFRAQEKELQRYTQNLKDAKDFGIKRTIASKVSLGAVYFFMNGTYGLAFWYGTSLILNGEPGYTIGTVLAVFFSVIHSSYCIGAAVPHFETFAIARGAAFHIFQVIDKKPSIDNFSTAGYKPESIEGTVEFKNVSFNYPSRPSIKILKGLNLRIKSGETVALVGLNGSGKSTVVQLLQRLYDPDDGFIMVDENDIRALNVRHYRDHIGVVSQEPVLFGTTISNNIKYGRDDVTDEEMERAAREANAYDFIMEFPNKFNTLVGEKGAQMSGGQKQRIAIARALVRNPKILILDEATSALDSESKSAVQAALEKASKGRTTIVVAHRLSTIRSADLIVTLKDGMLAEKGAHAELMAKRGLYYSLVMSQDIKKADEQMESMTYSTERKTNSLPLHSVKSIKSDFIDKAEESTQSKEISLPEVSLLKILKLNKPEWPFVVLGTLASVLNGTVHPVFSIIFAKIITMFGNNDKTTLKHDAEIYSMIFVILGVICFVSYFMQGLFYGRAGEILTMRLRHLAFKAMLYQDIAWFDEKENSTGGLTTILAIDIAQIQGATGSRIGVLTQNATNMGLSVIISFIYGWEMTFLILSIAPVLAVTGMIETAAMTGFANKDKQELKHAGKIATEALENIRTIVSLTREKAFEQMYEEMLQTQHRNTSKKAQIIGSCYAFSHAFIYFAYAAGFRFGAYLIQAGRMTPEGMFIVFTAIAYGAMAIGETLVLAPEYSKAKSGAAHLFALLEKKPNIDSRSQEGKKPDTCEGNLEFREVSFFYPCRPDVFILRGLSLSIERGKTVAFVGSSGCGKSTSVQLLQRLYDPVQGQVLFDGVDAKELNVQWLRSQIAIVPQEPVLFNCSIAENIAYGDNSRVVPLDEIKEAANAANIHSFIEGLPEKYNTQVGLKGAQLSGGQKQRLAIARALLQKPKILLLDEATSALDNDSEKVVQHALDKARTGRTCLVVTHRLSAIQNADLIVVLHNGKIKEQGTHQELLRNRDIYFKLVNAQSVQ", "assay": "Immunoprecipitation with anti-PIP2 or anti-PIP3 antibody from ABCB5-expressing melanoma cells, ABCB5 immunoblot", "format": "binding", "excerpt": "PIP2 pulldown was confirmed using immunoblotting with PIP2 antibody in FIG. 1A (lower panel)."}, "[4]": {"biological_target": "T3, murine Abcb5 (Mus musculus, UniProt B5X0E4)", "T3 construct": "wildtype mouse Abcb5-expressing skin tissue; from tissue; host or cells: wild-type mouse skin tissue", "T3 sequence (B5X0E4 1-1255)": "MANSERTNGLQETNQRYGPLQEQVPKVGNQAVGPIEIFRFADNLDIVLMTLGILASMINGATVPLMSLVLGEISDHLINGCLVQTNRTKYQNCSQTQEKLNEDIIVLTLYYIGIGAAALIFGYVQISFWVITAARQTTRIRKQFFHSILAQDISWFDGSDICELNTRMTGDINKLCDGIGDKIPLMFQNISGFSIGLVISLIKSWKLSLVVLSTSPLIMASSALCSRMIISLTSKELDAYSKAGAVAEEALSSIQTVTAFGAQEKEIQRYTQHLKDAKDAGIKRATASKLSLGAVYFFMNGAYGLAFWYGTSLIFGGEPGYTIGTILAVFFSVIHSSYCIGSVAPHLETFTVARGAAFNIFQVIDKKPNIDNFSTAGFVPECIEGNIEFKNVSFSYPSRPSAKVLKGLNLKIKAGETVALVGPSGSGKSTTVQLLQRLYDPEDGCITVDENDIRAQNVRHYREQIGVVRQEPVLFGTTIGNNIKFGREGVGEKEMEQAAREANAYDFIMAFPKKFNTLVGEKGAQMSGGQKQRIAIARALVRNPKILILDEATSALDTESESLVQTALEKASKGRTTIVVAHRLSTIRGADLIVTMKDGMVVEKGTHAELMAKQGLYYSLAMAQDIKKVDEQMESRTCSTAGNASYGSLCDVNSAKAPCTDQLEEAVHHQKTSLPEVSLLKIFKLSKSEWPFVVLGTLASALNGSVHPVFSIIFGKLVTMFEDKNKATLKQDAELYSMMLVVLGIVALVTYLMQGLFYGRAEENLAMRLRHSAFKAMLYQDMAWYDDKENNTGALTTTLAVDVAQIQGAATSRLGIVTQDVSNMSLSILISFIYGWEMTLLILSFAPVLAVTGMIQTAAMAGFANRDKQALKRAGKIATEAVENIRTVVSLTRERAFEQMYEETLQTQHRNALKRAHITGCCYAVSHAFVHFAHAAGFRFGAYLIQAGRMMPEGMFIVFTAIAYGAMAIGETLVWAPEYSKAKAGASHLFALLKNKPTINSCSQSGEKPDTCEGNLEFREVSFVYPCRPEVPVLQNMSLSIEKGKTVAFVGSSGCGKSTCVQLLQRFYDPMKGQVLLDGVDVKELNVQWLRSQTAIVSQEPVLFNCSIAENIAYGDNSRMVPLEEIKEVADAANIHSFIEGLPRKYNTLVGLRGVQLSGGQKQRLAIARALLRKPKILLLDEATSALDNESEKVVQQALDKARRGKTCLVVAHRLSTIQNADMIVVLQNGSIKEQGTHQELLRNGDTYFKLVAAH", "assay": "ELISA: plates coated with PIP1, PIP2 or PIP3 incubated with wildtype mouse Abcb5-expressing skin tissue", "format": "binding", "conditions": "absent in Abcb5 knockout tissue", "method": "(§1) ELISA plates coated with PIP1, PIP2 or PIP3 were incubated with either purified recombinant human ABCB5 isoform 2 (812 aa, NCBI Reference Sequence: NP_848654.3), wildtype mouse Abcb5-expressing skin tissue, or Abcb5 non-expressing skin tissue derived from ABCB5 knockout mice (as a specificity control), followed by bound ABCB5 detection using a murine ABCB5-specific monoclonal antibody (Ksander et al Nature 2014). […] Similar results were obtained using the murine ABCB5 mAb clone 3C2-1D12 (Frank NY et al. J Biol Chem. 2003) as a detection antibody."}, "[5]": {"biological_target": "T4, recombinant human ABCB5 isoform 2 (Homo sapiens, UniProt Q2M3G0)", "T4 sequence (Q2M3G0 446-1257)": "T1 sequence (Q2M3G0 1-812 isoform Q2M3G0-1)", "assay": "ELISA: plates coated with PIP1, PIP2 or PIP3 incubated with recombinant human ABCB5 isoform 2", "format": "binding", "method": "as §1"}, "[6]": {"test_system": "Tyr::CreER; BrafCA; Ptenlox/lox genetic mouse melanoma model", "assay": "Vemurafenib treatment in 4-HT inducible genetic mouse melanoma model on ABCB5 WT or KO background", "format": "in vivo", "conditions": "vemurafenib-treated ABCB5 WT mice"}}}
{"compound": "CCCCCCCC(=O)OC[C@H](COP(=O)(O)O[C@@H]1[C@H](O)[C@H](O)[C@@H](OP(=O)(O)O)[C@H](OP(=O)(O)O)[C@H]1O)OC(=O)CCCCCCC", "note": "[PI (4,5) P2, diC8]", "values": [{"measurement": "binding to ABCB5 by SPR", "setting": "[1]", "value": "shown to bind"}]}
{"compound": "CCCCCCCC(=O)OCC(COP(=O)(O)OC1C(O)C(O)C(O)C(O)C1O)OC(=O)CCCCCCC", "note": "(stereo not drawn) [PtdIns-(1,2-dioctanoyl)]", "values": [{"measurement": "inhibition of binding of PIP1, PIP2 or PIP3 to ABCB5", "setting": "[2]; increasing doses", "value": "competitively inhibit"}, {"measurement": "concentration of apparent saturation of the inhibitory effect", "setting": "[2]; inhibition of PIP1, PIP2 or PIP3 binding to ABCB5", "value": 0.1, "unit": "mM"}]}
{"compound": "PIP3", "values": [{"measurement": "co-precipitation of ABCB5 on lipid pulldown", "setting": "[3]", "value": "co-precipitation of ABCB5 protein"}, {"measurement": "binding to murine Abcb5", "setting": "[4]", "value": "bound"}, {"measurement": "binding to ABCB5 by SPR", "setting": "[1]", "value": "binding"}, {"measurement": "relative efficiency of binding to ABCB5", "setting": "[5]; PIP2 and PIP3 compared with PIP1", "value": "more efficient"}, {"measurement": "binding to recombinant human ABCB5", "setting": "[5]; detection with ABCB5-specific monoclonal antibody", "value": "bound"}]}
{"compound": "CCCS(=O)(=O)Nc1ccc(F)c(C(=O)c2c[nH]c3ncc(-c4ccc(Cl)cc4)cc23)c1F", "note": "[vemurafenib]", "values": [{"measurement": "formation of vemurafenib-resistant tumors", "setting": "[6]", "value": 100, "unit": "%"}]}
